USRE38103E1, “5-methanesulfonamido-1-indanones as an inhibitor of cyclooxygenase-2” (Merck Frosst Canada & Co., priority 1992, dated 2003)
Where two headings read alike, the source gives them in different places. Each block holds one molecule with its values, some of them ahead of it.

Legend:
cyclooxygenase-2 = biological target: T1, cyclooxygenase-2 (Homo sapiens, UniProt P35354); experiment: Inhibition of cyclooxygenase-2 activity (PGE2 synthesis in response to arachidonic acid, radioimmunoassay; whole cell and microsomal assays); assay type: cell-based; settings: for IC50: read-out: COX-2 IC50
T1 construct: Cells used for whole cell assays, and from which microsomes were prepared for microsomal assays, were human osteosarcoma 143 cells; endogenous in cells; host or cells: human osteosarcoma 143 cells (whole cells or microsomes)
T1 sequence (P35354 18-604): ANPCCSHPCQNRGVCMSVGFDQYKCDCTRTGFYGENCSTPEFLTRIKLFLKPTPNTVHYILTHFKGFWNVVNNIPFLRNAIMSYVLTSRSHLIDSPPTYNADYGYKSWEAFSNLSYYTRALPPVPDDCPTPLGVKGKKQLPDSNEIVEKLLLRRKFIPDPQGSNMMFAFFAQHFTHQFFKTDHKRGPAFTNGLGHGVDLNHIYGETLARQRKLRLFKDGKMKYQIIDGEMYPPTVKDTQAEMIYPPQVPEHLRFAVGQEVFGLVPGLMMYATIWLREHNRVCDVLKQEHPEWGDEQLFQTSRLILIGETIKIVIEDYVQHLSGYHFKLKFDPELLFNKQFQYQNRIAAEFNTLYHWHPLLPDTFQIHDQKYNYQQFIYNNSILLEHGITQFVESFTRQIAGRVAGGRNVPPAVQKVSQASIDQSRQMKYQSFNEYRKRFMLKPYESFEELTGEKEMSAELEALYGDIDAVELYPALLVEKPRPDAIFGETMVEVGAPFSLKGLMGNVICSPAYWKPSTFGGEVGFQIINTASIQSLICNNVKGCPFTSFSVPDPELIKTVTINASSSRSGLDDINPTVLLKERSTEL
Method: (§1) Compounds were tested as inhibitors of cyclooxygenase activity in whole cell and microsomal cyclooxygenase assays. Both of these assays measured prostaglandin E2 synthesis in response to arachidonic acid, using a radioimmunoassay. Cells used for whole cell assays, and from which microsomes were prepared for microsomal assays, were human osteosarcoma 143 cells (which specifically express cyclooxygenase-2) and human U-937 cells (which specifically express cyclooxygenase-1). In these assays, 100% activity is defined as the difference between prostaglandin E2 synthesis in the absence and presence of arachidonate addition.
(§2) In the assay, inhibition is determined by measuring the amount of prostaglandin E2 (PGE2) synthesized in the presence of arachidonic acid, cyclooxygenase-1 or cyclooxygenase-2 and a putative inhibitor.

cyclooxygenase-1 = biological target: T2, cyclooxygenase-1 (Homo sapiens, UniProt P23219); experiment: Inhibition of cyclooxygenase-1 activity (PGE2 synthesis in response to arachidonic acid, radioimmunoassay; whole cell and microsomal assays); assay type: cell-based; settings: for IC50: table of prepared examples, read-out: COX-1 IC50; for COX-1 inhibition (result in words, with concentration): human U-937 cells, concentration stated in the cell
T2 construct: human U-937 cells (which specifically express cyclooxygenase-1); endogenous in cells; host or cells: human U-937 cells (whole cells or microsomes)
T2 sequence (P23219 24-599): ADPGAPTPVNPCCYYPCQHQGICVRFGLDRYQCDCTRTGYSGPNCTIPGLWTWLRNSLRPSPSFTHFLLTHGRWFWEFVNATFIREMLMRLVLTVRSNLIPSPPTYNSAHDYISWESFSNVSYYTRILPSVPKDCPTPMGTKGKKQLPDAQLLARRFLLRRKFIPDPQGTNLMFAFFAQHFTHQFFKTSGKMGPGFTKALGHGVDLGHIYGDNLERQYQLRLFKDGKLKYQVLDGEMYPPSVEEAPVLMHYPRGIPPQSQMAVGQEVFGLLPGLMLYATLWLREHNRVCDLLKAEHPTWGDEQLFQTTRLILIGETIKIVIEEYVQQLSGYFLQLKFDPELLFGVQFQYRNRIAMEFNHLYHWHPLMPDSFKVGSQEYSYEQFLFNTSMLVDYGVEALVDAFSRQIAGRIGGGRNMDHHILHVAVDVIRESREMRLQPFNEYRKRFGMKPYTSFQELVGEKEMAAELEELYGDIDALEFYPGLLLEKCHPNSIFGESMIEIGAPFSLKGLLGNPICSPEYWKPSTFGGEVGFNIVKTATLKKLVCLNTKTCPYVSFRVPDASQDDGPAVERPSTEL
Method: as §1, §2

paw edema = experiment: Rat paw edema assay (carrageenan); assay type: in vivo; settings: po; for Rat Paw Edema ED50: table of prepared examples; for Rat Paw EDEMA ED30: 1 hr before carrageenan, paw volume 3 hr later
Method: One hr later, a line was drawn using a permanent marker at the level above the ankle in one hind paw to define the area of the paw to be monitored. The paw volume (VO) was measured using a plethysmometer (Ugo-Basile, Italy) based on the principle of water displacement. […] The animals were sacrificed by CO2 aphyxiation and the absence or presence of stomach lesions scored. Data were compared with the vehicle-control values and percent inhibition calculated. […] At least 6 animals were used at each concentration All treatment groups were coded to eliminate observer bias.

Rat plasma levels = assay type: in vivo
[1] = Monkey pharmacokinetics (Cmax, t1/2); assay type: in vivo

SMILES: CS(=O)(=O)Nc1cc2c(cc1Sc1ccccc1)C(=O)CC2 [Compound 6]
- IC50 (cyclooxygenase-2; table of prepared examples): 50 nM
- IC50 (cyclooxygenase-1): > 100000 nM
- Rat Paw Edema ED50 (paw edema): 0.16 mpk

SMILES: CS(=O)(=O)Nc1cc2c(cc1Sc1ccc(C(F)(F)F)cc1)C(=O)CC2 [Compound 22]
- IC50 (cyclooxygenase-2; table of prepared examples): 50 nM

SMILES: CS(=O)(=O)Nc1cc2c(cc1Sc1ccc(F)cc1F)C(=O)CC2 [Compound 12, 5-Methanesulfonamido-6-(2,4-difluorophenylthio)-1-indanone]
- COX-2 % INHB (cyclooxygenase-2; CONC 10 nM): 43%
- COX-2 % INHB (cyclooxygenase-2; CONC 100 nM): 87%
- COX-2 % INHB (cyclooxygenase-2; CONC 1000 nM): 91%
- IC50 (cyclooxygenase-1): > 10000 nM
- Rat Paw EDEMA ED30 (paw edema): 0.3 ± .1 mpk
- Rat Paw Edema ED50 (paw edema): 0.3 mpk
- Rat Plasma Levels @ 1 hr (Rat plasma levels; 10 mpk): 70 @ 10 mpk μg/ml
- Cmax ([1]; in vivo, 5 mg/kg, 5 mpk): 35000 ng/mL
- half-life ([1]; in vivo, n = 2, estimated, read-out: t½ Monkey (n = 2) (Estimated)): > 9 h

SMILES: COc1ccc2c(c1)c(CC(=O)O)c(C)n2C(=O)c1ccc(Cl)cc1 [INDOMETHACIN, Indomethacin, reference compound]
- Rat Paw EDEMA ED30 (paw edema): 1.1 ± .3 mpk

SMILES: CS(=O)(=O)Nc1cc2c(cc1Oc1ccc(F)cc1F)C(=O)CC2 [Compound 3, Flosulide, reference compound]
- COX-1 inhibition (result in words, with concentration) (cyclooxygenase-1): Inactive at 50 μM
- IC50 (cyclooxygenase-1): > 50000 nM
- Rat Paw EDEMA ED30 (paw edema): 1.1 ± .4 mpk
- Rat Paw Edema ED50 (paw edema): 0.62 mpk
- Rat Plasma Levels @ 1 hr (Rat plasma levels; 20 mpk): 48 @ 20 mpk μg/ml
- Monkey Cmax ([1]; 10 mpk): 17 @ 10 mpk μg/ml
- t½ Monkey (n = 2) (Estimated) ([1]; n = 2, estimated): <4 h

SMILES: CS(=O)(=O)Nc1cc2c(cc1Sc1ccc(Cl)cc1)C(=O)CC2 [Compound 9]
- IC50 (cyclooxygenase-2; table of prepared examples): 100 nM

SMILES: CS(=O)(=O)Nc1cc2c(cc1Oc1ccccc1)C(=O)CC2 [Compound 1, reference compound]
- IC50 (cyclooxygenase-2; table of prepared examples): 30 nM

SMILES: CS(=O)(=O)Nc1cc2c(cc1Sc1ccc(Cl)cc1F)C(=O)CC2 [Compound 14]
- IC50 (cyclooxygenase-2; table of prepared examples): 13 nM

SMILES: CS(=O)(=O)Nc1cc2c(cc1Oc1ccc(Br)cc1)C(=O)CC2 [Compound 2]
- IC50 (cyclooxygenase-2; table of prepared examples): 9 nM

More lines, main results first:

- IC50 (cyclooxygenase-2; table of prepared examples): 100 nM
SMILES: CS(=O)(=O)Nc1cc2c(cc1Sc1ccc(F)cc1)C(=O)CC2 [Compound 8]

- IC50 (cyclooxygenase-2; table of prepared examples): 100 nM
SMILES: Cc1ccccc1Sc1cc2c(cc1NS(C)(=O)=O)CCC2=O [Compound 19]

- IC50 (cyclooxygenase-2; table of prepared examples): 50 nM
SMILES: Cc1ccc(Sc2cc3c(cc2NS(C)(=O)=O)CCC3=O)cc1 [Compound 20]

- IC50 (cyclooxygenase-2; table of prepared examples): 10 nM
SMILES: CS(=O)(=O)Nc1cc2c(cc1Sc1ccc(I)cc1)C(=O)CC2 [Compound 11]

- IC50 (cyclooxygenase-2; human osteosarcoma 143 cells, PGE2 synthesis): 8 nM
- COX-1 inhibition (result in words, with concentration) (cyclooxygenase-1): Inactive at 100 μM
- IC50 (cyclooxygenase-1): > 100000 nM
SMILES: CS(=O)(=O)Nc1cc2c(cc1Oc1ccc(Cl)cc1Cl)C(=O)CC2 [Compound 4, 5-Methanesulfonamido-6-(2,4-dichlorophenoxy)-1-indanone]
- Rat Paw EDEMA ED30 (paw edema): 0.22 mpk
- Rat Paw Edema ED50 (paw edema): 0.22 mpk

- IC50 (cyclooxygenase-2; table of prepared examples): 11 nM
SMILES: CS(=O)(=O)Nc1cc2c(cc1Sc1ccc(F)cc1Cl)C(=O)CC2 [Compound 16]

- IC50 (cyclooxygenase-2; table of prepared examples): 100 nM
SMILES: C=Cc1ccc(Sc2cc3c(cc2NS(C)(=O)=O)CCC3=O)cc1 [Compound 24]
